These results are taken from patent US10150743B2, “Carboxylic acid compounds” (priority 2012, dated 2018).

One experiment concerns the target human TLR7 (Homo sapiens (Human), UniProt Q9NYK1). Put plainly: Human TLR7 assay (SEAP reporter in HEK293). The format is cell-based. As to conditions: SEAP induction, overnight incubation at 37° C., 0.1% DMSO; read-out: TLR7 (pEC50) (converted). An excerpt:
Recombinant human TLR7 was stably expressed in a HEK293 cell line already stably expressing the pNiFty2-SEAP reporter plasmid; integration of the reporter gene was maintained by selection with the antibiotic zeocin. The most common variant sequence of human TLR7 (represented by the EMBL sequence AF240467) was cloned into the mammalian cell expression vector pUNO and transfected into this reporter cell-line. Transfectants with stable expression were selected using the antibiotic blasticidin. In this reporter cell-line, expression of secreted alkaline phosphatase (SEAP) is controlled by an NFkB/ELAM-1 composite promoter comprising five NFkB sites combined with the proximal ELAM-1 promoter. TLR signaling leads to the translocation of NFkB and activation of the promoter results in expression of the SEAP gene. TLR7-specific activation was assessed by determining the level of SEAP produced following overnight incubation of the cells at 37° C. with the standard compound in the presence of 0.1% (v/v) dimethylsulfoxide (DMSO). Concentration dependent induction of SEAP production by compounds was expressed as the concentration of compound which produced half of the maximal level of SEAP induction for that compound (EC50).

Another experiment relates to Renca mouse tumour cells. Put plainly: Tumour growth studies in Renca, a murine syngeneic renal carcinoma tumour model. It is filed as in vivo. Particulars: Balb/C mice, 0.3 mg/kg once a week p.o. on days 1, 8, 15; vs 0.5% methylcellulose; FIG. 9. As to the method: Experiments were conducted on female mice (Balb/C genotype, at least 5 weeks old). Renca mouse tumour cells (Cancer Chemother Pharmacol. 1995; 36 (1): 7-12) were kindly provided by Dr. T. Fujioka at Department of Urology, Iwate Medical University School of Medicine. Renca mouse tumour cells (5×10^4) were implanted subcutaneously in the flank of mice on day 0. Mice were treated with either drug vehicle (0.5% methylcellulose), the compound of Example 3 (0.3 mg/kg once a week) or the compound of Example 4 (3 mg/kg once a week) administered orally (p. o.) on days 1, 8, and 15. Tumour volumes were assessed at least twice weekly by bilateral vernier caliper measurements.
Tumour growth inhibition from the start of treatment was assessed by comparison of the differences in tumour growth rate between control and the compound of Example 3 treated groups, as shown in FIG. 9.
Tumour growth inhibition from the start of treatment was assessed by comparison of the differences in tumour growth rate between control and the compound of the Example 4 treated groups, as shown in FIG. 10.

The next experiment deals with CT26 mouse tumour cells. Put plainly: Survival studies in CT26, a murine syngeneic colon carcinoma tumour model. It is filed as in vivo. Particulars: Balb/C mice; RT 2Gy x5 plus 30 mg/kg once a week p.o.; vs control or RT; FIG. 12. The method, then:
Experiments were conducted on female mice (Balb/C genotype, at least 5 weeks old). CT26 mouse tumour cells (CRL-2638) were purchased from ATCC. CT26 mouse tumour cells (1×10^6) were implanted subcutaneously in the flank of mice on day 0. Mice in radiotherapy alone (RT) group and combination group were anesthetized and received radiation therapy (2Gy) at days 7, 8, 9, 10, and 11. Mice in combination group were also treated with a compound of Example 3 (30 mg/kg once a week) administered orally (p.o.) or Example 4 (5 mg/kg once a week) administered intravenously (i. v.) on days 7, 14, 22, and 27. Tumour volumes were assessed at least twice weekly by bilateral vernier caliper measurements. Survival period was determined by the time taken for tumours to reach 4 times the volume at the time of treatment.

Sequence of human TLR7 (Q9NYK1 27-1049): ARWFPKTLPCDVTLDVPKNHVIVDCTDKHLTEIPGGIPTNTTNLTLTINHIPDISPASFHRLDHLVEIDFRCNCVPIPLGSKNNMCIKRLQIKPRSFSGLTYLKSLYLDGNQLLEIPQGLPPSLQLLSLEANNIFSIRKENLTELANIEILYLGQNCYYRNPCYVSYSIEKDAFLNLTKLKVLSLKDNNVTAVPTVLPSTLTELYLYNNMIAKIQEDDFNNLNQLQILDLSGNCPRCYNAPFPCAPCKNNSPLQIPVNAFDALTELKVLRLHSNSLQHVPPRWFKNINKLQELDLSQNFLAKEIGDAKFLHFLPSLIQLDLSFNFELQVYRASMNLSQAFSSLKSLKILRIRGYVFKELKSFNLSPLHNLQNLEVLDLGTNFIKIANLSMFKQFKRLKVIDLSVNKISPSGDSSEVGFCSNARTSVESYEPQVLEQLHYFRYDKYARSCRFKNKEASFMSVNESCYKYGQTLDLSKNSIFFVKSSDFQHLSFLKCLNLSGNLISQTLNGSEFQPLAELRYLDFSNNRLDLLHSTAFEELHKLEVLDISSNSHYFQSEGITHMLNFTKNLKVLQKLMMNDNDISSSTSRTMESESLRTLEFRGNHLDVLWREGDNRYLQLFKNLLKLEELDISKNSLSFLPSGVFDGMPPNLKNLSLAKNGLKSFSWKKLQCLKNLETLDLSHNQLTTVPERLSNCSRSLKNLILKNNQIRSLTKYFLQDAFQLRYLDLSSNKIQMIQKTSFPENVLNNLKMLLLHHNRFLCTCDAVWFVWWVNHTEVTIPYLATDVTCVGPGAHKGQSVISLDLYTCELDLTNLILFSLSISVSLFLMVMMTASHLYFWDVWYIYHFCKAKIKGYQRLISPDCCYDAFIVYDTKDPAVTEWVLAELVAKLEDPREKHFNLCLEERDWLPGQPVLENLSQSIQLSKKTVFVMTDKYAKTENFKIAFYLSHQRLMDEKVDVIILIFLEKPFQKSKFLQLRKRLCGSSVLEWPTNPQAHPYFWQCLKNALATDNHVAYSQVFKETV

With `CCC[C@@H](CCO)Nc1nc(N)nc(C)c1Cc1ccc(CN(CC(=O)O)CC(F)F)cc1OC` [Example 3, (S)-2-((4-((2-amino-4-(1-hydroxyhexan-3-ylamino)-6-methylpyrimidin-5-yl)methyl)-3-methoxybenzyl)(2,2-difluoroethyl)amino)acetic acid], the EC50 at human TLR7 is 79.4 nM. For the same molecule, the Tumour growth inhibition result with Renca mouse tumour cells was “inhibited tumour growth”. In the experiment on CT26 mouse tumour cells, the “Survival period (time for tumours to reach 4 times the volume at treatment)” value was “survived significantly longer”.
